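These data come from cells grown in 96-well plates and exposed to compound for 48 hours at five concentrations. GI50: concentration for 50% inhibition of growth. The concentration for full growth arrest is given as TGI.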
Columns and labels:
Assay in all cases: NCI tumour cell line growth inhibition, 48 h
[1] = tested on: SF-295 CNS
[2] = tested on: UACC-257 melanoma
[3] = tested on: HL-60(TB) leukemia
[4] = tested on: 786-0 renal
[5] = tested on: EKVX NSCLC
[6] = tested on: RXF 393 renal
[7] = tested on: ACHN renal
[8] = tested on: MALME-3M melanoma
[9] = tested on: A549 NSCLC
[10] = tested on: T-47D breast
[11] = tested on: NCI/ADR-RES ovarian
[12] = tested on: DU-145 prostate
[13] = tested on: HOP-62 NSCLC
[14] = tested on: KM12 colon
[15] = tested on: CCRF-CEM leukemia
[16] = tested on: OVCAR-5 ovarian
[17] = tested on: NCI-H226 lung
[18] = tested on: MDA-MB-435
[19] = tested on: SK-MEL-28 melanoma
[20] = tested on: HS 578T breast
[21] = tested on: U251 CNS
[22] = tested on: M14 melanoma
[23] = tested on: IGROV1 ovarian
[24] = tested on: LOX IMVI melanoma
[25] = tested on: CAKI-1 renal
[26] = tested on: TK-10 renal
[27] = tested on: UO-31 renal
[28] = tested on: HT29 colon
[29] = tested on: SNB-75 CNS
[30] = tested on: RPMI-8226 leukemia
[31] = tested on: A498 renal
[32] = tested on: MCF7 breast
[33] = tested on: SK-MEL-5 melanoma
[34] = tested on: BT-549 breast
[35] = tested on: NCI-H460 lung
[36] = tested on: SNB-19 CNS
[37] = tested on: SN12C renal
[38] = tested on: SR leukemia
[39] = tested on: HOP-92 NSCLC
[40] = tested on: NCI-H23 lung
[41] = tested on: SF-539 CNS
[42] = tested on: UACC-62 melanoma
[43] = tested on: SK-OV-3 ovarian
[44] = tested on: HCC-2998 colon
[45] = tested on: PC-3 prostate
[46] = tested on: MOLT-4 leukemia
[47] = tested on: OVCAR-4 ovarian
[48] = tested on: SF-268 CNS
[49] = tested on: SW-620 colon
[50] = tested on: MDA-MB-231 breast
[51] = tested on: SK-MEL-2 melanoma
[52] = tested on: HCT-116 colon
[53] = tested on: OVCAR-8 ovarian
[54] = tested on: HCT-15 colon
[55] = tested on: K-562 leukemia
[56] = tested on: COLO 205 colon

## Cc1ccc(-c2csc(N/N=C/c3nc4ccccc4n3C3CC3)n2)cc1
[1]
  GI50: 45.5 µM
  TGI: > 100 µM
[2]
  GI50: 1.51 µM
  TGI: 2930 nM
[3]
  GI50: 1860 nM
  TGI: 4.38 µM
[4]
  GI50: 4120 nM
  TGI: 16 µM
[5]
  GI50: 21 µM
  TGI: 55.9 µM
[6]
  GI50: 1950 nM
  TGI: 4.46 µM
[7]
  GI50: 1580 nM
  TGI: 3.08 µM
[8]
  GI50: 1990 nM
  TGI: 3.84 µM
[9]
  GI50: 5.55 µM
  TGI: 26.9 µM
[10]
  GI50: 2.14 µM
  TGI: 5.27 µM
[11]
  GI50: 13.6 µM
  TGI: > 100 µM
[12]
  GI50: 1830 nM
  TGI: 3.42 µM
[13]
  GI50: 3670 nM
  TGI: 49.7 µM
[14]
  GI50: 16.3 µM
  TGI: 59.8 µM
[15]
  GI50: 2150 nM
  TGI: 5.39 µM
[16]
  GI50: 17.6 µM
  TGI: 39.5 µM
[17]
  GI50: 8.34 µM
  TGI: > 100 µM
[18]
  GI50: 10.5 µM
  TGI: 23.6 µM
[19]
  GI50: 1820 nM
  TGI: 3.35 µM
[20]
  GI50: 11.7 µM
  TGI: 57 µM
[21]
  GI50: 2720 nM
  TGI: 8.33 µM
[22]
  GI50: 1750 nM
  TGI: 3.43 µM
[23]
  GI50: 5.73 µM
  TGI: 35.9 µM
[24]
  GI50: 4.61 µM
  TGI: 36.4 µM
[25]
  GI50: 1520 nM
  TGI: 3.07 µM
[26]
  GI50: 1.68 µM
  TGI: 3.05 µM
[27]
  GI50: 1600 nM
  TGI: 3.05 µM
[28]
  GI50: 1840 nM
  TGI: 3.48 µM
[29]
  GI50: 1860 nM
  TGI: 3.9 µM
[30]
  GI50: 1950 nM
  TGI: 4.71 µM
[31]
  GI50: 14.4 µM
  TGI: 33.6 µM
[32]
  GI50: 1920 nM
  TGI: 4.39 µM
[33]
  GI50: 2040 nM
  TGI: 11.4 µM
[34]
  GI50: 4.47 µM
  TGI: 17.6 µM
[35]
  GI50: 7.72 µM
  TGI: 27.1 µM
[36]
  GI50: 5190 nM
  TGI: 79.4 µM
[37]
  GI50: 8.55 µM
  TGI: 31.5 µM
[38]
  GI50: 2020 nM
  TGI: 5.63 µM
[39]
  GI50: 1650 nM
  TGI: 3.13 µM
[40]
  GI50: 20 µM
  TGI: 61 µM
[41]
  GI50: 12.2 µM
  TGI: 27.5 µM
[42]
  GI50: 16.5 µM
  TGI: 31 µM
[43]
  GI50: 8.53 µM
  TGI: > 100 µM
[44]
  GI50: 16.2 µM
  TGI: 46.5 µM
[45]
  GI50: 12 µM
  TGI: 25.7 µM
[46]
  GI50: 2180 nM
  TGI: 4.75 µM
[47]
  GI50: 1.74 µM
  TGI: 3.33 µM
[48]
  GI50: 4.21 µM
  TGI: 21.1 µM
[49]
  GI50: 1620 nM
  TGI: 3.29 µM
[50]
  GI50: 10.6 µM
  TGI: 41.4 µM

## CCC1=Cc2c(OC)cccc2OC12C=Cc1c(OC)cccc1O2 (stereo not drawn)
[1]
  GI50: 1.01 µM
  TGI: > 100 µM
[2]
  GI50: 7.48 µM
  TGI: > 100000 nM
[3]
  GI50: 507 nM
  TGI: > 100 µM
[4]
  GI50: 1840 nM
  TGI: > 100 µM
[5]
  GI50: 4.74 µM
  TGI: > 100 µM
[6]
  GI50: 990 nM
  TGI: 7.29 µM
[7]
  GI50: 2850 nM
  TGI: > 100 µM
[8]
  GI50: 3790 nM
  TGI: > 100 µM
[9]
  GI50: 1.52 µM
  TGI: > 100 µM
[10]
  GI50: 16.3 µM
  TGI: > 100 µM
[11]
  GI50: 0.678 µM
  TGI: > 100 µM
[12]
  GI50: 2140 nM
  TGI: > 100 µM
[51]
  GI50: 1220 nM
  TGI: 6.03 µM
[13]
  GI50: 1660 nM
  TGI: > 100 µM
[14]
  GI50: 0.519 µM
  TGI: 32.4 µM
[15]
  GI50: 551 nM
  TGI: > 100 µM
[52]
  GI50: 436 nM
  TGI: > 100 µM
[53]
  GI50: 2150 nM
  TGI: 6.51 µM
[16]
  GI50: 1.84 µM
  TGI: > 100 µM
[17]
  GI50: 2.84 µM
  TGI: 52.1 µM
[19]
  GI50: > 100000 nM
  TGI: > 100 µM
[20]
  GI50: 2.55 µM
  TGI: > 100 µM
[21]
  GI50: 1090 nM
  TGI: > 100 µM
[22]
  GI50: 570 nM
  TGI: 22 µM
[23]
  GI50: 2.5 µM
  TGI: > 100 µM
[24]
  GI50: 1.6 µM
  TGI: > 100 µM
[25]
  GI50: 858 nM
  TGI: > 100 µM
[26]
  GI50: 24.5 µM
  TGI: > 100 µM
[27]
  GI50: 2400 nM
  TGI: > 100 µM
[28]
  GI50: 508 nM
  TGI: 3.76 µM
[29]
  GI50: 1310 nM
  TGI: 9.27 µM
[30]
  GI50: 2870 nM
  TGI: > 100 µM
[31]
  GI50: 1.3 µM
  TGI: 4.17 µM
[32]
  GI50: 414 nM
  TGI: > 100 µM
[33]
  GI50: 1240 nM
  TGI: 8.33 µM
[34]
  GI50: 1.61 µM
  TGI: 6.22 µM
[35]
  GI50: 2.57 µM
  TGI: 14.2 µM
[54]
  GI50: 469 nM
  TGI: > 100 µM
[36]
  GI50: 646 nM
  TGI: > 100 µM
[37]
  GI50: 0.94 µM
  TGI: > 100 µM
[55]
  GI50: 463 nM
  TGI: > 100 µM
[56]
  GI50: 1310 nM
  TGI: 3.7 µM
[39]
  GI50: 1000 nM
  TGI: 8.79 µM
[40]
  GI50: 2.93 µM
  TGI: > 100 µM
[41]
  GI50: 1.57 µM
  TGI: 9.03 µM
[42]
  GI50: 0.53 µM
  TGI: > 100 µM
[43]
  GI50: 2.93 µM
  TGI: > 100 µM
[44]
  GI50: 2.58 µM
  TGI: 13.2 µM
[45]
  GI50: 1.73 µM
  TGI: > 100 µM
[46]
  GI50: 2390 nM
  TGI: > 100 µM
[47]
  GI50: 47.4 µM
  TGI: > 100 µM
[48]
  GI50: 3.09 µM
  TGI: > 100 µM
[49]
  GI50: 707 nM
  TGI: > 100 µM
[50]
  GI50: 2.03 µM
  TGI: 73.2 µM
